Assay results reported in paper PMC12892976, “Alkylation-based optimization of antifungal FPPS inhibitors yields a potent, broad-spectrum lipophilic zoledronate derivative” (mBio, 2025).
Read-outs that look alike come from different tables or passages of the source.

Key:
Saccharomyces cerevisiae [1] = test: MIC/MFC broth microdilution (CLSI); format: cell-based; conditions: Saccharomyces cerevisiae S288c
Method: (§1) Antifungal susceptibility was determined by broth microdilution according to the CLSI guidelines described in M27-Ed4 ([16]). […] MFC was determined by back-plating drug-treated cultures from MIC broths onto SDA plates. The MFC was defined as the lowest concentration from which no colonies could be cultured.

Candida albicans [2] = test: MIC/MFC broth microdilution (CLSI); format: cell-based; conditions: Candida albicans SC5314
Method: as §1

Candida tropicalis = test: MIC broth microdilution (CLSI); format: cell-based; conditions: Candida tropicalis M230640
Method: (§2) Antifungal susceptibility was determined by broth microdilution according to the CLSI guidelines described in M27-Ed4 ([16]).

[3] = system: Trichophyton interdigitale; test: MIC broth microdilution (CLSI); format: cell-based; conditions: Trichophyton interdigitale R-234
Method: as §2

[4] = system: Cryptococcus deuterogattii; test: checkerboard drug interaction (FICI, MICc);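 as to all read-outs here: simplified diagonal checkerboard screen pairing antifungal drugs with FPPS inhibitors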; format: cell-based; conditions: for INH MICc: C. deuterogattii
Method: (§3) Drug interactions between antifungals and FPPS inhibitors were investigated using a simplified checkerboard diagonal screening method ([45]). […] FICIs were determined according to the Loewe additivity model ([17]).

Cryptococcus neoformans [5] = test: checkerboard drug interaction (FICI, MICc);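 as to all read-outs here: antifungal plus FPPS inhibitor pairs tested against Cryptococcus neoformans by simplified diagonal checkerboard screening, FICI computed under the Loewe additivity model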; format: cell-based; conditions: for INH MICc: C. neoformans
Method: as §3

Saccharomyces cerevisiae [6] = test: checkerboard drug interaction (FICI, MICc); format: cell-based; parameters: INH MICc / INH MICc (ITR:INH) / INH MICc (KET:INH) / INH MICc (FLC:INH): unit not given beside the values;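 also: simplified diagonal checkerboard screen pairing antifungals with FPPS inhibitors, FICI calculated under the Loewe additivity model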
Candida glabrata [7] = test: checkerboard drug interaction (FICI, MICc);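 as to all read-outs here: simplified diagonal checkerboard screen pairing antifungals with FPPS inhibitors, FICI calculated under the Loewe additivity model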; format: cell-based; conditions: for INH MICc: C. glabrata
Method: as §3

Candida albicans [8] = test: checkerboard drug interaction (FICI, MICc);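 as to all read-outs here: antifungal plus FPPS inhibitor combinations on Candida albicans tested by a simplified diagonal checkerboard screen, with FICI calculated under the Loewe additivity model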; format: cell-based; conditions: for INH MICc: C. albicans
Method: as §3

Aspergillus flavus [9] = test: checkerboard drug interaction (FICI, MICc); format: cell-based; parameters: INH MICc (KET:INH) / INH MICc (FLC:INH): unit not given beside the values;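 also: simplified diagonal checkerboard screen pairing azole antifungals with FPPS inhibitors, FICI calculated under the Loewe additivity model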
Aspergillus fumigatus [10] = test: checkerboard drug interaction (FICI, MICc); format: cell-based;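 also: simplified diagonal checkerboard screen pairing antifungals with FPPS inhibitors against Aspergillus fumigatus, with FICI calculated under the Loewe additivity model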
Method: as §3

Aspergillus felis = test: checkerboard drug interaction (FICI, MICc); format: cell-based;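 also: simplified diagonal checkerboard screen pairing antifungals with FPPS inhibitors, FICI calculated under the Loewe additivity model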
Method: as §3

Trichophyton rubrum [11] = test: checkerboard drug interaction (FICI, MICc); format: cell-based
Method: as §3

eight fungal species [12] = test: MIC/MFC summary across the eight fungal species of Table 1; format: cell-based
Method: The antifungal activity of these compounds was evaluated according to CLSI guidelines ([16]).

eight fungal species [13] = test: checkerboard interaction with azoles, summary across the eight species; format: cell-based
From the text: Synergy between lipophilic FPPS inhibitors and azole antifungals was investigated by determining the fractional inhibitory concentration index (FICI) (Fig. 2; Table S1 Fig. S1) ([17]). […]. Derivatives PLA9 and 11, and PDA9, 11, and 12 antagonized azoles in C. albicans, C. neoformans, and C. deuterogattii, yet were largely synergistic in C. glabrata and S. cerevisiae. […].

[14] = system: Cryptococcus deuterogattii; test: MIC/MFC broth microdilution (CLSI);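 also: broth microdilution per CLSI M27-Ed4. MFC is the lowest concentration yielding no colonies when MIC broths are subcultured onto SDA plates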
Method: as §1

Cryptococcus neoformans [15] = test: MIC/MFC broth microdilution (CLSI);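 also: susceptibility testing followed the CLSI M27-Ed4 broth microdilution document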
Method: as §1

Candida glabrata [16] = test: MIC/MFC broth microdilution (CLSI);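 also: broth microdilution following CLSI M27-Ed4, MFC taken as the lowest drug level yielding no growth once MIC wells were subcultured on SDA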
Method: as §1

Aspergillus flavus [17] = test: MIC/MFC broth microdilution (CLSI); conditions: ATCC204304
Method: as §1

Aspergillus fumigatus [18] = test: MIC/MFC broth microdilution (CLSI); conditions: ATCC204305
Method: as §1

Trichophyton rubrum [19] = test: MIC/MFC broth microdilution (CLSI)
Method: as §1

[20] = FLC:INH combination, MIC of the inhibitor in combination with FLC
[21] = ITR:INH combination, MIC of the inhibitor in combination with ITR
[22] = KET:INH combination, MIC of the inhibitor in combination with KET

CCCCCCCCCCn1cc[n+](CC(O)(P(=O)(O)O)P(=O)(O)O)c1 [10-ZOL, Decyl-zoledronate]
MFC (Saccharomyces cerevisiae [1]): 8 µg/mL
MIC (Saccharomyces cerevisiae [1]): 1 µg/mL
MIC / MEC (Saccharomyces cerevisiae [1]): 1 µg/mL
MFC (Candida albicans [2]): 16 µg/mL
MIC (Candida albicans [2]): 4 µg/mL
MIC / MEC (Candida albicans [2]): 4 µg/mL
MIC / MEC (Candida tropicalis): 2 µg/mL
MIC / MEC [3]: 1 µg/mL
INH MICc [4, 20]: 0.125
INH MICc [4, 21]: 0.125
INH MICc [4, 22]: 0.063
bisphosphonate MICc ([4]; with 5FC): 1
bisphosphonate MICc ([4]; with AMB): 0.063
bisphosphonate MICc ([4]; with CAS): 1
bisphosphonate MICc ([4]; with FLC): 0.125
bisphosphonate MICc ([4]; with ITR): 0.125
bisphosphonate MICc ([4]; with KET): 0.063
bisphosphonate MICc ([4]; with VOR): 0.063
INH MICc (Cryptococcus neoformans [5]; [20]): 0.125
INH MICc (Cryptococcus neoformans [5]; [21]): 0.063
INH MICc (Cryptococcus neoformans [5]; [22]): 0.063
bisphosphonate MICc (Cryptococcus neoformans [5]; with 5FC): 0.5
bisphosphonate MICc (Cryptococcus neoformans [5]; with AMB): 0.25
bisphosphonate MICc (Cryptococcus neoformans [5]; with CAS): 0.5
bisphosphonate MICc (Cryptococcus neoformans [5]; with FLC): 0.125
bisphosphonate MICc (Cryptococcus neoformans [5]; with ITR): 0.063
bisphosphonate MICc (Cryptococcus neoformans [5]; with KET): 0.063
bisphosphonate MICc (Cryptococcus neoformans [5]; with VOR): 0.25
FICI (Saccharomyces cerevisiae [6]; 5FC:10-ZOL): 2
FICI (Saccharomyces cerevisiae [6]; ITR:10-ZOL): 1
FLC MICc (Saccharomyces cerevisiae [6]; S. cerevisiae, FLC:INH combination, MIC of FLC in combination with the inhibitor): 1
INH MICc (Saccharomyces cerevisiae [6]; S. cerevisiae, FLC:INH combination, MIC of the inhibitor in combination with FLC): 0.5
FICI (Saccharomyces cerevisiae [6]; S. cerevisiae, ITR:INH combination): 1
ITR MICc (Saccharomyces cerevisiae [6]; S. cerevisiae, ITR:INH combination, MIC of ITR in combination with the inhibitor): 0.125
INH MICc (Saccharomyces cerevisiae [6]; S. cerevisiae, ITR:INH combination, MIC of the inhibitor in combination with ITR): 0.5
KET MICc (Saccharomyces cerevisiae [6]; S. cerevisiae, KET:INH combination, MIC of KET in combination with the inhibitor): 0.25
INH MICc (Saccharomyces cerevisiae [6]; S. cerevisiae, KET:INH combination, MIC of the inhibitor in combination with KET): 0.25
bisphosphonate MICc (Saccharomyces cerevisiae [6]; with 5FC): 1
bisphosphonate MICc (Saccharomyces cerevisiae [6]; with AMB): 0.25
bisphosphonate MICc (Saccharomyces cerevisiae [6]; with CAS): 0.063
bisphosphonate MICc (Saccharomyces cerevisiae [6]; with FLC): 0.5
bisphosphonate MICc (Saccharomyces cerevisiae [6]; with ITR): 0.5
FICI (Saccharomyces cerevisiae [6]; with ITR, Saccharomyces cerevisiae): 1.00
bisphosphonate MICc (Saccharomyces cerevisiae [6]; with KET): 0.25
bisphosphonate MICc (Saccharomyces cerevisiae [6]; with VOR): 0.25
INH MICc (Candida glabrata [7]; [20]): 0.125
INH MICc (Candida glabrata [7]; [21]): 0.063
INH MICc (Candida glabrata [7]; [22]): 0.031
bisphosphonate MICc (Candida glabrata [7]; with 5FC): 0.125
bisphosphonate MICc (Candida glabrata [7]; with AMB): 0.25
bisphosphonate MICc (Candida glabrata [7]; with CAS): 0.25
bisphosphonate MICc (Candida glabrata [7]; with FLC): 0.125
bisphosphonate MICc (Candida glabrata [7]; with ITR): 0.063
bisphosphonate MICc (Candida glabrata [7]; with KET): 0.031
bisphosphonate MICc (Candida glabrata [7]; with VOR): 0.03125
INH MICc (Candida albicans [8]; [20]): 0.0625
INH MICc (Candida albicans [8]; [21]): 0.25
INH MICc (Candida albicans [8]; [22]): 0.125
bisphosphonate MICc (Candida albicans [8]; with 5FC): 0.5
bisphosphonate MICc (Candida albicans [8]; with AMB): 0.25
bisphosphonate MICc (Candida albicans [8]; with CAS): 1
bisphosphonate MICc (Candida albicans [8]; with FLC): 0.0625
bisphosphonate MICc (Candida albicans [8]; with ITR): 0.25
bisphosphonate MICc (Candida albicans [8]; with KET): 0.125
bisphosphonate MICc (Candida albicans [8]; with VOR): 0.25
INH MICc (FLC:INH) (Aspergillus flavus [9]; A. flavus, MIC of the inhibitor in combination with fluconazole): 0.063
INH MICc (ITR:INH) (Aspergillus flavus [9]; A. flavus, MIC of the inhibitor in combination with itraconazole): 0.125
INH MICc (KET:INH) (Aspergillus flavus [9]; A. flavus, MIC of the inhibitor in combination with ketoconazole): 0.125
FICI (Aspergillus flavus [9]; AMB:10-ZOL): 2
FICI (Aspergillus flavus [9]; FLC:10-ZOL): 0.53
FICI (Aspergillus flavus [9]; VOR:10-ZOL): 0.37
bisphosphonate MICc (Aspergillus flavus [9]; with 5FC): 1
bisphosphonate MICc (Aspergillus flavus [9]; with AMB): 2
bisphosphonate MICc (Aspergillus flavus [9]; with CAS): 2
bisphosphonate MICc (Aspergillus flavus [9]; with FLC): 0.063
FICI (Aspergillus flavus [9]; with FLC, Aspergillus flavus): 0.53
bisphosphonate MICc (Aspergillus flavus [9]; with ITR): 0.125
bisphosphonate MICc (Aspergillus flavus [9]; with KET): 0.125
bisphosphonate MICc (Aspergillus flavus [9]; with VOR): 0.5
FICI (Aspergillus fumigatus [10]; 5FC:10-ZOL): 3
FLC MICc (Aspergillus fumigatus [10]; A. fumigatus, FLC:INH combination, MIC of FLC in combination with the inhibitor): 8
INH MICc (Aspergillus fumigatus [10]; A. fumigatus, FLC:INH combination, MIC of the inhibitor in combination with FLC): 0.5
ITR MICc (Aspergillus fumigatus [10]; A. fumigatus, ITR:INH combination, MIC of ITR in combination with the inhibitor): 0.063
INH MICc (Aspergillus fumigatus [10]; A. fumigatus, ITR:INH combination, MIC of the inhibitor in combination with ITR): 0.063
KET MICc (Aspergillus fumigatus [10]; A. fumigatus, KET:INH combination, MIC of KET in combination with the inhibitor): 0.25
INH MICc (Aspergillus fumigatus [10]; A. fumigatus, KET:INH combination, MIC of the inhibitor in combination with KET): 0.25
FICI (Aspergillus fumigatus [10]; CAS:10-ZOL): 1.5
bisphosphonate MICc (Aspergillus fumigatus [10]; with 5FC): 1
bisphosphonate MICc (Aspergillus fumigatus [10]; with AMB): 0.25
bisphosphonate MICc (Aspergillus fumigatus [10]; with CAS): 1
bisphosphonate MICc (Aspergillus fumigatus [10]; with FLC): 0.5
bisphosphonate MICc (Aspergillus fumigatus [10]; with ITR): 0.063
bisphosphonate MICc (Aspergillus fumigatus [10]; with KET): 0.25
bisphosphonate MICc (Aspergillus fumigatus [10]; with VOR): 0.25
FICI (Aspergillus felis; AMB:10-ZOL): 1
FICI (Aspergillus felis; CAS:10-ZOL): ≥4
FICI (Aspergillus felis; FLC:10-ZOL): 0.52
bisphosphonate MICc (Aspergillus felis; with 5FC): 1
bisphosphonate MICc (Aspergillus felis; with AMB): 1
bisphosphonate MICc (Aspergillus felis; with CAS): 4
bisphosphonate MICc (Aspergillus felis; with FLC): 1
bisphosphonate MICc (Aspergillus felis; with ITR): 1
bisphosphonate MICc (Aspergillus felis; with KET): 0.25
bisphosphonate MICc (Aspergillus felis; with VOR): 1
FICI (Trichophyton rubrum [11]; KET:10-ZOL): 0.5
INH MICc (FLC:INH) (Trichophyton rubrum [11]; T. rubrum, MIC of the inhibitor in combination with fluconazole): 0.5
INH MICc (ITR:INH) (Trichophyton rubrum [11]; T. rubrum, MIC of the inhibitor in combination with itraconazole): 0.5
INH MICc (KET:INH) (Trichophyton rubrum [11]; T. rubrum, MIC of the inhibitor in combination with ketoconazole): 0.5
FICI (Trichophyton rubrum [11]; VOR:10-ZOL): 0.5
bisphosphonate MICc (Trichophyton rubrum [11]; with 5FC): 1
bisphosphonate MICc (Trichophyton rubrum [11]; with AMB): 0.25
bisphosphonate MICc (Trichophyton rubrum [11]; with CAS): 0.5
bisphosphonate MICc (Trichophyton rubrum [11]; with FLC): 0.5
bisphosphonate MICc (Trichophyton rubrum [11]; with ITR): 0.5
bisphosphonate MICc (Trichophyton rubrum [11]; with KET): 0.5
bisphosphonate MICc (Trichophyton rubrum [11]; with VOR): 0.5
Geometric mean MFC (eight fungal species [12]; across eight species): 4.8 µg/mL
Geometric mean MIC (eight fungal species [12]; across eight species): 1.2 µg/mL
MFC (eight fungal species [12]; across eight species, read-out: Geometric mean MFC): 4.8 µg/mL
range of MICs across the tested fungal species (eight fungal species [12]; eight species): 0.5 to 4 µg/mL
MIC (eight fungal species [12]; geometric mean across eight species, read-out: GM fungal MIC): 1.2 µg/mL
MIC (eight fungal species [12]; read-out: Geometric mean MIC): 1.2 µg/mL
effect on azole MIC in combination (eight fungal species [13]; across all species tested): consistently reduced the MIC of the azole
antagonism with azole drugs (eight fungal species [13]; any of the azole drugs in any species tested): no antagonism
GM fungal MICc (eight fungal species [13]; geometric mean MIC in combination with azoles): 0.1
MFC ([14]; Cryptococcus deuterogattii): 2 µg/mL
MIC ([14]; Cryptococcus deuterogattii): 1 µg/mL
MIC / MEC ([14]; Cryptococcus deuterogattii R265): 1 µg/mL
MFC (Cryptococcus neoformans [15]; Cryptococcus neoformans): 2 µg/mL
MIC (Cryptococcus neoformans [15]; Cryptococcus neoformans): 1 µg/mL
MIC / MEC (Cryptococcus neoformans [15]; Cryptococcus neoformans H99): 0.5 µg/mL
MIC / MEC (Candida glabrata [16]; Candida glabrata CBS138 (ATCC 2001)): 0.5 µg/mL
MFC (Candida glabrata [16]; Nakaseomyces glabratus, CBS138): 1 µg/mL
MIC (Candida glabrata [16]; Nakaseomyces glabratus, CBS138): 0.5 µg/mL
MFC (Aspergillus flavus [17]): 4 µg/mL
MIC (Aspergillus flavus [17]): 2 µg/mL
MIC / MEC (Aspergillus flavus [17]): 2 µg/mL
MFC (Aspergillus fumigatus [18]): 2 µg/mL
MIC (Aspergillus fumigatus [18]): 1 µg/mL
MIC / MEC (Aspergillus fumigatus [18]): 1 µg/mL
MFC (Trichophyton rubrum [19]; Trichophyton rubrum): 64 µg/mL
MIC (Trichophyton rubrum [19]; Trichophyton rubrum): 1 µg/mL
MIC / MEC (Trichophyton rubrum [19]; Trichophyton rubrum R-218): 2 µg/mL
